Results: the NIST ThermoML archive (doi:10.1021/je050020m)

Experiment: xn = mol fraction of the nth substance listed
Details: Liquid, Vibrating tube method

CCCCCCCCCC [decane] + O=C=O
Details | mass density [kg/m3]
313.1 K, 2005 kPa, x2 = 0.0551 | 717.94
313.1 K, 3035 kPa, x2 = 0.0551 | 718.98
313.1 K, 4061 kPa, x2 = 0.0551 | 719.88
313.1 K, 5020 kPa, x2 = 0.2369 | 728.09
313.1 K, 5063 kPa, x2 = 0.0551 | 720.72
313.1 K, 6029 kPa, x2 = 0.0551 | 721.55
313.1 K, 6029 kPa, x2 = 0.2369 | 729.09
313.1 K, 7015 kPa, x2 = 0.2369 | 730.07
313.1 K, 7028 kPa, x2 = 0.0551 | 722.42
313.1 K, 7998 kPa, x2 = 0.0551 | 723.25
313.1 K, 8019 kPa, x2 = 0.2369 | 731.05
313.1 K, 9012 kPa, x2 = 0.2369 | 732.01
313.1 K, 9019 kPa, x2 = 0.0551 | 724.09
313.1 K, 10010 kPa, x2 = 0.0551 | 724.92
313.1 K, 10012 kPa, x2 = 0.2369 | 732.96
313.1 K, 11018 kPa, x2 = 0.2369 | 733.88
313.1 K, 11032 kPa, x2 = 0.0551 | 725.72
313.1 K, 12009 kPa, x2 = 0.2369 | 734.8
313.1 K, 12046 kPa, x2 = 0.0551 | 726.55
313.1 K, 13016 kPa, x2 = 0.2369 | 735.72
313.1 K, 13029 kPa, x2 = 0.0551 | 727.32
313.1 K, 14011 kPa, x2 = 0.0551 | 728.1
313.1 K, 14019 kPa, x2 = 0.2369 | 736.6
313.1 K, 15006 kPa, x2 = 0.2369 | 737.46
313.1 K, 15013 kPa, x2 = 0.0551 | 728.84
313.1 K, 15992 kPa, x2 = 0.0551 | 729.58
313.1 K, 16017 kPa, x2 = 0.2369 | 738.34
313.1 K, 16999 kPa, x2 = 0.0551 | 730.32
313.1 K, 17006 kPa, x2 = 0.2369 | 739.17
313.1 K, 18008 kPa, x2 = 0.2369 | 740.01
313.1 K, 18044 kPa, x2 = 0.0551 | 731.13
313.1 K, 19016 kPa, x2 = 0.2369 | 740.85
313.1 K, 19030 kPa, x2 = 0.0551 | 731.85
313.1 K, 19999 kPa, x2 = 0.0551 | 732.57
313.1 K, 20000 kPa, x2 = 0.2369 | 741.67
313.1 K, 21019 kPa, x2 = 0.2369 | 742.51
313.1 K, 21031 kPa, x2 = 0.0551 | 733.3
313.1 K, 22002 kPa, x2 = 0.2369 | 743.29
313.1 K, 22015 kPa, x2 = 0.0551 | 734
313.1 K, 23007 kPa, x2 = 0.2369 | 744.12
313.1 K, 23023 kPa, x2 = 0.0551 | 734.74
313.1 K, 24008 kPa, x2 = 0.2369 | 744.96
313.1 K, 24060 kPa, x2 = 0.0551 | 735.5
313.1 K, 25013 kPa, x2 = 0.2369 | 745.78
313.1 K, 25026 kPa, x2 = 0.0551 | 736.2
313.11 K, 7015 kPa, x2 = 0.4536 | 742.3
313.11 K, 8024 kPa, x2 = 0.4536 | 743.57
313.11 K, 9021 kPa, x2 = 0.4536 | 744.82
313.11 K, 10024 kPa, x2 = 0.4536 | 746.02
313.11 K, 11020 kPa, x2 = 0.4536 | 747.22
313.11 K, 11029 kPa, x2 = 0.9663 | 714.21
313.11 K, 12022 kPa, x2 = 0.4536 | 748.39
313.11 K, 12037 kPa, x2 = 0.9663 | 738.68
313.11 K, 13012 kPa, x2 = 0.4536 | 749.55
313.11 K, 13049 kPa, x2 = 0.9663 | 758.54
313.11 K, 14017 kPa, x2 = 0.4536 | 750.69
313.11 K, 14020 kPa, x2 = 0.9663 | 774.43
313.11 K, 15013 kPa, x2 = 0.9663 | 788.48
313.11 K, 15020 kPa, x2 = 0.4536 | 751.81
313.11 K, 16007 kPa, x2 = 0.9663 | 800.98
313.11 K, 16020 kPa, x2 = 0.4536 | 752.93
313.11 K, 17013 kPa, x2 = 0.4536 | 753.99
313.11 K, 17027 kPa, x2 = 0.9663 | 812.43
313.11 K, 17984 kPa, x2 = 0.9663 | 822.21
313.11 K, 18019 kPa, x2 = 0.4536 | 755.06
313.11 K, 19014 kPa, x2 = 0.4536 | 756.08
313.11 K, 19037 kPa, x2 = 0.9663 | 832.11
